According to patent US8163746B2, “Azolecarboxamide derivative” (Astellas Pharma Inc., priority 2006, dated 2012):

Key:
[1] = target: T1, Human nerve growth factor receptor (Homo sapiens, UniProt P04629); assay: Receptor inhibitory activity using cells expressing a nerve growth factor receptor (NGF-dependent intracellular Ca increase, FLIPR); assay type: cell-based; details: HEK293 cells stably expressing Human nerve growth factor receptor; NGF about 100 to 150 ng/ml; Ca concentration change
T1 construct: expressed in transfected cells
Method: 1. Experiment to Measure a Receptor Inhibitory Activity Using Cells Expressing a Nerve Growth Factor Receptor
The nerve growth factor receptor inhibitory activity was measured by using the increase in a ligand-dependent calcium concentration in cells as an index. HEK293 cells (American Type Culture Collection) that stably expressed Human nerve growth factor receptor were dispensed onto a 96-well poly-D-lysine-coated plate (Product Name: Biocoat, PDL96W black/clear, by Nippon Becton Dickinson) to a 2×10^4 cells/well at the day before the experiment, and incubated overnight at 37° C. under 5% carbon dioxide (CO2) in a culture medium containing 10% fetal bovine serum (FBS) (Product Name: DMEM, Invitrogen Corporation). The culture medium was replaced by a washing solution: a Hank's balanced salt solution)(HBSS), containing a 1.5 μM loading buffer (fluorescent indicator (Product Name: Fluo-4-AM, […].)), 20 mM 2-[4-(2-hydroxyethyl)-1-piperazinyl]ethanesulfonic acid (HEPES)-sodium hydroxide (NaOH), 2.5 mM Probenecid, 0.1% bovine serum albumin (BSA), and left to stand at room temperature for 3 hours, and the cells were washed using a plate washer (Product Name: ELx405, BIO-TEK instrument Corporation) in which a washing solution had been set up. The compound that had been preliminarily dissolved and diluted in a washing solution was added thereto, and set up in a system for measuring a calcium (Ca) concentration in a cell (Product Name: FLIPR, Molecular Devices Corporation). After 5 minutes, a nerve growth factor (NGF, mouse derived 2.5S, Alomone) corresponding on 80% stimulation of a maximum response was added (to a final concentration of about 100 to 150 ng/ml) to measure the change in Ca concentrations in cells. A difference between a maximum value and a minimum value in Ca concentrations in cells was determined, and kept as measurement data. With a response upon addition of NGF being set at 0%, and a response upon addition of a buffer being set at 100%, the concentration causing 50% inhibition was determined as an IC50 value. In the table, Ex represents Compound No. of Examples as described later. From the results of this test, it was confirmed that the compound of the present invention has a nerve growth factor receptor inhibitory activity.

trkA receptor = target: T2, trkA receptor (Rattus norvegicus, UniProt P35739); assay: Inhibitory activity on enhanced vascular permeability caused by NGF in rat (Evans blue); assay type: in vivo; details: Wistar female rat, 10 mg/kg oral, NGF intracutaneous 60 min after administration, vehicle group set at 100%
T2 construct: from tissue; host or cells: Wistar female rat (SLC), skin of the back, in vivo
Method: 2. Evaluation of the Inhibitory Activity of the Compound on Enhanced Vascular Permeability Caused by NGF in Rat
The in vivo trkA receptor inhibitory activity of the compound was examined. A Wistar female rat (SLC) were forced to be orally administered with the compound (0.5% methylcellulose solution) 10 mg/3 ml/kg or a vehicle (0.5% methylcellulose solution) 3 ml/kg. Under ether anesthesia performed at 60 min after administration, physiological saline or 1 ug/ml NGF (NGF, mouse derived 2.5S, Alomone) was intracutaneously administered to the back at 50 ul/site, and then immediately a 1% Evans blue solution (dissolved in physiological saline) was administered through caudal vein at 3 ml/kg. At a time point of 10 min after the administration, the skin on the back was taken, and shaken in formamide for 16 hours. After shaking, an absorption of Evans blue extracted with formamide was measured by an absorption meter (wavelength: 620 nm), and the concentration was determined by a calibration curve method. A value obtained by subtracting the concentration of Evans blue at a site administered with physiological saline from the concentration of Evans blue at a site administered with NGF has a function dependent on NGF, and an inhibitory rate of the compound group was determined with a group administered with vehicle being set at 100%. In this test, it was confirmed that the compound of the present invention has an excellent inhibitory activity on enhanced vascular permeability caused by NGF in rat.

[2] = tested on: acetic acid-induced painful behaviors in rat; assay: Effects on acetic acid-induced painful behaviors (writhing) in rat; assay type: in vivo; details: Wistar male rat; 10 mg/kg oral 5 min before 1% acetic acid i.p.; writhing frequency 10-20 min; vehicle group = 100%
Method: 4. Effects of the Compound on Acetic Acid-Induced Painful Behaviors in Rat
1% Acetic acid (99% distilled water) was intraperitoneally administered to a Wistar male rat (Charles river laboratories), and the frequency of pain behavior (writhing) between 10 min and 20 min after administration was measured. The compound (10 mg/5 ml/kg) or a vehicle (0.5% methylcellulose solution) was orally administered 5 mins before the administration of 1% acetic acid. With the frequency of the group administered with the vehicle being set at 100%, the inhibition rate of the writhing behavior frequency by the compound administration was determined.

[3] = tested on: CPA-induced urinary frequency in rat; assay: Effects on cyclophosphamide (CPA)-induced urinary frequency in rat; assay type: in vivo; details: Wistar female rat, 2 days after CPA, value before administration = 100%
Method: 3. Effects of the Compound on the Cyclophosphamide (CPA)-Induced Urinary Frequency in Rat
CPA (150 mg/5 ml/kg) was intraperitoneally administered to a Wistar female rat (Charles river laboratories), and after two days, the experiment was carried out. It was forced to be orally administered with distilled water (30 ml/kg), and then placed in a metabolic cage, and the voided urine weight and the urination frequency were continuously measured for 1 hour. The compound (0.5% methylcellulose solution) 3 or 10 mg/5 ml/kg, or a vehicle (0.5% methylcellulose solution) 5 ml/kg was orally administered, and after 5 to 30 min, the urinary functions were measured after loading water in the same manner as described above. A total voided urine weight was divided by the total urination frequency to determine an effective bladder capacity. With the value before administration of the compound being set at 100%, a rate of change in the effective bladder capacity caused by administration of the compound was determined.
In this test, at 2 days after CPA treatment, the effective bladder capacity was decreased (about 0.5 ml), indicating urinary frequency condition.

[4] = dose 10 mg/kg oral, evaluation 30-90 min after administration
[5] = dose 3 mg/kg oral, evaluation 5-65 min after administration

T2 sequence (P35739 33-799): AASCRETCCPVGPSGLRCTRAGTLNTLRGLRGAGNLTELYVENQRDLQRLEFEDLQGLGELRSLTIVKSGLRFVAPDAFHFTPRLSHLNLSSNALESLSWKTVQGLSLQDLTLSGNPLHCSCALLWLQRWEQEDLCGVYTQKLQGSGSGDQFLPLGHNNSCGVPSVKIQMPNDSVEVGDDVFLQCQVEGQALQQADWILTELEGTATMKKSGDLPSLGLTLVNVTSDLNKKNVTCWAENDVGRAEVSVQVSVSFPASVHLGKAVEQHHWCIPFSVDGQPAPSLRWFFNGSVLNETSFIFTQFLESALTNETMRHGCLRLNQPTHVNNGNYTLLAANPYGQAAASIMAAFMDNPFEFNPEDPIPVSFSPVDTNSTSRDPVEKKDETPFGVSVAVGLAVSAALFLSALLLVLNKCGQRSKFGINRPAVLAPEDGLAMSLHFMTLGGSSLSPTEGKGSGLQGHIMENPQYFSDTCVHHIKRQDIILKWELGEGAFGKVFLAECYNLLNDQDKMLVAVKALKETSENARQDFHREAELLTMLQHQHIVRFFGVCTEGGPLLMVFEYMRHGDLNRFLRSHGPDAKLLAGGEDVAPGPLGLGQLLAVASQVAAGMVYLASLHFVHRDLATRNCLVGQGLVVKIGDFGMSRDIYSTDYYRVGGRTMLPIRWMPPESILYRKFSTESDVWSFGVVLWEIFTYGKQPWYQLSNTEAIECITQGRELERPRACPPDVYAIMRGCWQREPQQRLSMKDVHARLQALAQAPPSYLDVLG
T1 sequence (P04629 33-796): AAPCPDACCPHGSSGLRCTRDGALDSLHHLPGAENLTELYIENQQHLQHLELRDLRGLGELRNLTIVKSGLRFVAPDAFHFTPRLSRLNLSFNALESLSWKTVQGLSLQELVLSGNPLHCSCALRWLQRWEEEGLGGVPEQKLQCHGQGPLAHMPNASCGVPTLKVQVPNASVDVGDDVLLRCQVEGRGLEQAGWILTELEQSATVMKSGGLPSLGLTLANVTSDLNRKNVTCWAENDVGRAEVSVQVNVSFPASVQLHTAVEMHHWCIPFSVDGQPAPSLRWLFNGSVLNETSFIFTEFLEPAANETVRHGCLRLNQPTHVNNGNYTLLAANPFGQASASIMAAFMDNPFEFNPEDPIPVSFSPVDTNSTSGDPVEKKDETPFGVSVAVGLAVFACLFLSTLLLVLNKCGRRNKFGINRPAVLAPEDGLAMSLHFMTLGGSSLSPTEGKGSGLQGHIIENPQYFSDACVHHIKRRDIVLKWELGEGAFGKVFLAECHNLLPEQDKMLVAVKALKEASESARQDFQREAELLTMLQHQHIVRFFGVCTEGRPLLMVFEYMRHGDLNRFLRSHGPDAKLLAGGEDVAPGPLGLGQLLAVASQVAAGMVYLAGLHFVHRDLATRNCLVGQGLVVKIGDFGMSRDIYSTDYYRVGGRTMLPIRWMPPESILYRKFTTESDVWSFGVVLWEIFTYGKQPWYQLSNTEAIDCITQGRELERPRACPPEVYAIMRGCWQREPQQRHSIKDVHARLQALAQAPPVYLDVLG

Row | SMILES | IC50 [1] [nM] | Inhibition rate (trkA receptor) [%] | Inhibition rate [2] [%] | Change rate of effective bladder capacity [3, 4] [%] | Change rate of effective bladder capacity [3, 5] [%]
1 | NC(=O)CN1CCN(c2ccccc2NC(=O)c2csc(N3CCOCC3)n2)CC1 [Example 151] | 11 | 93 | 53 | 147 | 
2 | NC(=O)CN1CCN(c2c(F)cccc2NC(=O)c2csc(N3CCC(O)CC3)n2)CC1 [Example 311] | 2.6 | 90 |  |  | 
3 | COCCN(C)c1nc(C(=O)Nc2ccccc2N2CCN(CC(N)=O)CC2)cs1.Cl [Example 356, N-{2-[4-(2-amino-2-oxoethyl)-piperazin-1-yl]phenyl}-2-[(2-methoxyethyl)(methyl)amino]-1,3-thiazole-4-carboxamide hydrochloride] | 8.8 | 97 |  | 180 | 
4 | COCCN(C)c1nc(C(=O)Nc2cccnc2N2CCC(C(N)=O)CC2)cs1 [Example 380] | 9.5 | 88 | 44 | 152 | 
5 | COCCN(C)c1nc(C(=O)Nc2cccnc2N2CCN(CC(N)=O)CC2)cs1 [Example 382] | 11 | 92 | 38 |  | 134
6 | Cl.NC(=O)C1CCN(c2ncccc2NC(=O)c2coc(N3CCOCC3)n2)CC1 [Example 501, 1-(3-{[(2-morpholin-4-yl-1,3-oxazol-4-yl)carbonyl]amino}pyridin-2-yl)piperidine-4-carboxamide hydrochloride] | 12 | 85 | 55 | 157 | 
7 | NC(=O)C1CCN(c2ccccc2NC(=O)c2csc(-c3ccoc3)n2)CC1 [Example 662, 1-[2-({[2-(3-furyl)-1,3-thiazol-4-yl]carbonyl}amino)phenyl]-4-piperidine carboxamide] | 2.4 |  |  |  | 
8 | NC(=O)CN1CCN(c2ccc(F)cc2NC(=O)c2coc(C3CCOCC3)n2)CC1 [Example 942] | 4.6 | 95 |  |  | 153
